Laboratory results as given in PubChem BioAssay (NCI).
Where “and” joins values, the source holds several entries; their conditions need not be identical. Equal values may be shown once.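 Cultured in 96-well plates, cells were exposed to test compound for 48 hours across five concentrations. GI50 = concentration required for 50% inhibition of growth. TGI is the concentration that stops growth completely.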

Assays:
Assay in all cases: NCI-60 cell line screen, 48 h
[1] = test system: HOP-62 NSCLC
[2] = test system: SR leukemia
[3] = test system: TK-10 renal
[4] = test system: K-562 leukemia
[5] = test system: OVCAR-8 ovarian
[6] = test system: SK-OV-3 ovarian
[7] = test system: SK-MEL-5 melanoma
[8] = test system: ACHN renal
[9] = test system: OVCAR-4 ovarian
[10] = test system: NCI/ADR-RES ovarian

SMILES	TGI [1] [µM]	TGI [2]	TGI [3] [µM]	TGI [4]	TGI [5] [µM]	TGI [6] [µM]	TGI [7] [µM]	TGI [8]	TGI [9]	GI50 [1] [µM]	GI50 [3]	GI50 [4]	GI50 [5]	GI50 [6] [µM]	GI50 [7]	GI50 [8]	GI50 [9]	GI50 [10] [µM]	TGI [10] [µM]	GI50 [2]
NC1=NN(c2ccccc2)C(=O)C1C(=O)CCC(=O)Nc1cccc(C(F)(F)F)c1 (stereo unspecified)	> 100	> 100 µM	> 100	> 100 µM	> 100	> 100	> 100	> 100 µM	> 100 µM											
Cc1ccccc1N(CCC#N)C1=NN(C(=O)CC(=O)Nc2ccccc2)C(c2ccccc2)C1 (stereo unspecified)	> 100	> 100 µM		> 100 µM	> 100	> 100	> 100	> 100 µM	> 100 µM											
COC(=O)C1=NC(=S)NC(c2ccccc2)C1c1nc2ccccc2s1 (stereo unspecified)	> 100	> 100 µM	> 100		> 100	> 100	> 100	> 100 µM	> 100 µM											
CCOC1=NC(=O)CC(c2ccccc2)S1 (stereo unspecified)				> 100 µM	> 100		> 100	> 100 µM	> 100 µM											
CCC[CH2][Sn]1([CH2]CCC)[O]C(=O)C(C(C)C)N=Cc2ccccc2[O]1 (stereo unspecified)	> 100		0.73	1.04 µM	> 100	1.63	> 100	0.882 µM	2.07 µM	3.79	0.272 µM	0.171 µM	> 100 µM	0.52	1.07 µM	0.274 µM	0.836 µM			
Cc1ccc(Nc2nc3c(s2)C(=O)c2ccccc2C3=O)c(C)c1	30.5		36.6	43 µM	35.2	62.5	28.2	30.6 µM	25 µM											
O=C(O)CP(=S)(S)c1ccccc1 (stereo unspecified)	> 100	> 100 µM	> 100	> 100 µM	> 100	> 100	> 100	> 100 µM	> 100 µM											
COC(=O)c1cccc2cccc(C(=O)Nc3ccc(C)cc3C)c12	> 100	> 100 µM	> 100	> 100 µM	> 100	> 100	> 100	> 100 µM	> 100 µM											
CC(C)N(C(=O)C12CC3CC(CC(C3)C1)C2)C(C)C	> 50		> 50	> 50 µM	> 50	> 50	> 50	> 50 µM	> 50 µM											
NC(N)=NCCCn1c2c(c3ccccc3c1=O)C(=O)c1ccccc1-2	3.64		98.3	29.5 µM	> 100	> 100	29.5	35.2 µM	> 100 µM	0.695	29.5 µM	11.6 µM	36 µM	34.2	15.1 µM	18 µM	55.6 µM	38.6	> 100	
CC(=O)OC[C@]12CC[C@H]3[C@@H](C[C@H]4O[C@]45[C@@H](O)C=CC(=O)[C@]35C)[C@@H]1CC[C@@H]2[C@H](C)[C@H]1CC(C)=C(C)C(=O)O1	3.52	0.617 µM and 0.631 µM	1.82	0.849 µM and 0.979 µM	0.899	5.98	2.02	0.792 µM and 1.16 µM	0.9 µM and 1.06 µM	1.51	0.548 µM and 0.68 µM	0.272 µM and 0.201 µM	0.331 µM and 0.285 µM	2.78	0.702 µM and 0.664 µM	0.498 µM and 0.515 µM	0.571 µM and 0.331 µM			0.189 µM and 0.187 µM
COc1cc(OC(=O)c2c(O)cc(O)c(O)c2C)cc(C)c1C(=O)Oc1cc(C)c(C(=O)O)c(O)c1	> 100	> 100 µM	> 100	> 100 µM	> 100	> 100	> 100	> 100 µM	> 100 µM											
CCOC(=O)CN=c1nc(SC)sc2c(C(=O)OCC)nc(Sc3ccccc3)n12	> 100	> 100 µM	> 100	> 100 µM	> 100	> 100	> 100		> 100 µM											
O=C(O)CN(c1ccccc1)S(=O)(=O)c1ccccc1[N+](=O)[O-]			> 100		> 100	> 100	> 100	> 100 µM	> 100 µM											
COc1ccc(C(=O)COc2cccc(/C=C3\COc4ccc5ccccc5c4C3=O)c2)cc1	> 100		> 100	66.7 µM	> 100	> 100	> 100	> 100 µM	> 100 µM	29.7	24.2 µM	3.63 µM	4.5 µM	82.2	5.58 µM	80.7 µM	6.53 µM	6.14	> 100	
CCOC(=O)NC(=O)c1cn(CCOCCOC(=O)NCCCCCCNC(=O)OCCOCCn2cc(C(=O)NC(=O)OCC)c(=O)[nH]c2=O)c(=O)[nH]c1=O	> 100	> 100 µM	> 100	> 100 µM	> 100	> 100	> 100	> 100 µM	> 100 µM											
CC(C)=CCC/C(=C/CC/C(C)=C/CCc1ccoc1)C(=O)O	> 100			> 100 µM	> 100	> 100	> 100	> 100 µM	> 100 µM											
CC[O-].CC[O-].O=C1c2ccccc2C(=O)c2c(O)ccc([O-])c21.O=C1c2ccccc2C(=O)c2c(O)ccc([O-])c21.[Ti+4]	> 100		> 100	> 100 µM	> 100	> 100	> 100	> 100 µM	> 100 µM											
COc1ccc(C(=O)c2cc(C)c(OC)c(C)c2)c(OC)c1N(C(=O)C(Cl)Cl)C(=O)C(Cl)Cl	> 100		> 100	> 100 µM	> 100	> 100	2.14	> 100 µM	> 100 µM	0.0666	> 79.8 µM	0.0487 µM	0.0558 µM	0.052	0.0509 µM	0.0699 µM	1.59 µM	0.032		
O=C1NC(=O)c2ccc([N+](=O)[O-])c3cccc1c23	49.2		45.8	32.7 µM	26.1	50.9	34.6	33.7 µM	35.5 µM											
